Source: US20250387388A1, “COMPOUND AS TRK INHIBITOR AND/OR RET INHIBITOR AND USE THEREOF” (Medinno Pharmaceutical Technology (Zhuhai) Co., Ltd., priority 2022, published 2025)

How the values were obtained:
[1] = tested on: acne model in rabbits; assay: Acne model in rabbits (coal tar + Propionibacterium acnes); type: in vivo, New Zealand white rabbits; details: for Rabbit ear weight: twice per day, topical, 2 weeks; for Serum DHT level / Serum IL-1α level: vs. model (vehicle) group; for Effect on inflammatory factors and acne (conclusion): rabbit, in vivo
Method: Modeling: Rabbits were acclimated for 7 days. On the right inner ear canal exit of the rabbits, a 2 cm×2 cm area was treated with 2% coal tar solution once a day, 0.5-1 mL each time, for 26 consecutive days. […] On the 8th day, Propionibacterium acnes was injected intradermally at 3-4 sites on the rabbit ears, 50 μl per rabbit, injected every other day for a total of 5 times. Treatment was started randomly on the 9th day after the last injection.
Rabbits were treated according to their groups. The blank group received no treatment. […] The model group received an equal amount of vehicle treatment, with the same application method and duration as the test drug groups.
Twenty-four hours after the last administration, a 2.8 cm punch was used to prepare ear samples at the application site, and their weight was measured. The ears from the modeling site were fixed with 4% paraformaldehyde, and consecutive sections (3 slices) were taken from the same location for HE staining and histopathological analysis. At the same time, the area of 3 hair follicles and the diameter of 3 sebaceous glands were measured to calculate the average values. Blood was drawn from the heart and centrifuged to obtain serum, and the levels of interleukin-1α (IL-1α), interleukin-6 (IL-6), and dihydrotestosterone (DHT) in serum were determined according to the ELISA kit instructions.
Tissue samples from animal ears were excised, fixed in 4% paraformaldehyde, dehydrated, embedded in paraffin, and sectioned and HE stained for observation of histopathological morphology changes. The tissue samples were fixed in 4% paraformaldehyde at normal temperature and the taken ears tissue was rinsed with running water for several hours, dehydrated through a series of ethanol solutions (70%, 80%, 90%), and then treated with a mixture of pure alcohol and xylene for 15 minutes, followed by xylene I for 15 minutes and xylene II for 15 minutes (until transparent). The tissue was then placed in a mixture of xylene and paraffin at a volume ratio of 1:1 for 15 minutes, followed by immersion with paraffin I and paraffin II each for 50-60 minutes. The tissue was embedded in paraffin and sectioned, and the sections were baked, dewaxed and hydrated in distilled water. The resulting sections were then stained in hematoxylin solution for 3 minutes, differentiated in a hydrochloric acid alcohol solution for 15 seconds, slightly washed, blued in a return blue solution for 15 seconds, rinsed with running water, stained with eosin for 3 minutes, rinsed with running water, dehydrated, cleared, and mounted for microscopic examination.
A double-antibody one-step sandwich Enzyme-linked Immunosorbent Assay (ELISA) ket was used. A capture antibody for the mouse target indicators was pre-coated onto microplate wells, to which samples, standards, and HRP-labeled detection antibodies were added sequentially, followed by incubation and thorough washing. TMB substrate was added for color development, which turned into blue in the presence of peroxidase and then into yellow after acidification. The depth of color was positively correlated with the concentration of the target in the samples. The absorbance (OD450 value) was measured at a wavelength of 450 nm using the microplate reader, and the sample concentration was calculated.

[2] = tested on: ovalbumin-induced asthma model in mice; assay: Ovalbumin-induced asthma model in mice; type: in vivo, Balb/c mice; details: nasal administration BID 5 days: MDI-1228 3 mg/kg, MDI-1288 3 mg/kg, MDI-1233 1, 3, 10 mg/kg; for Bronchoalveolar lavage fluid IL-5 expression level / Inflammatory cell count in bronchoalveolar lavage fluid / Lung tissue inflammatory cell infiltration (HE pathology) / Serum IgE expression level: vs. vehicle (model) group, dexamethasone 1 mg/kg gavage QD
Method: After 7 days of acclimatization, animals were randomly grouped based on their body weight. The experiment was divided into 8 groups, with 8 mice in each group, as detailed in the table below.
• Preparation of Immunogen: Weigh an appropriate amount of OVA, to which an appropriate amount of PBS was added, to achieve a final concentration of 0.1 mg/ml. Then, an equal volume of aluminum adjuvant was added, and the resulting mixture was mixed well, and stored at 4° C., which was prepared before use. • Preparation of Sensitizer (5% OVA): Weigh an appropriate amount of OVA, to which an appropriate amount of PBS was added, to achieve a final concentration of 5%. The resulting mixture was mixed well, and store it at 4° C. for later use, which was prepared before use. • Preparation of Vehicle: Add 200 μl of Tween 80 to 100 ml of saline, and mix it well. […] Mix it well, and store it at 4° C. for later use. […] Mix it well, and store it at 4° C. for later use. […] Mix it well, and store it at 4° C. for later use. The solution was prepared once every three days.
• Immunization: On days 0, 7, 14, and 21, 200 μl of PBS was injected intraperitoneally for the first group, and 200 μl of (10 μg) OVA/aluminum adjuvant emulsion was injected intraperitoneally for groups 2-8. • Sensitization: From days 28 to 32, the first group of animals was exposed to nebulized PBS in a nebulization box for 20 minutes, and the groups 2-8 were exposed to nebulized 5% OVA in a nebulization box for 20 minutes. And then, they were removed. The sensitization was conducted at 12:30 PM daily. • Administration: The medicine was administrated twice a day at 9 AM and 5 PM via nasal drops. Dexamethasone (Dex) was administered by gavage once a day at 9 AM.
Serum IgE: Blood was collected from the orbits of animals after carbon dioxide euthanasia, and plasma was separated and stored at −40 degrees for plasma IgE detection.
Bronchoalveolar Lavage Fluid (BALF) Cell Count: An appropriate amount of foetal bovine serum was weighted and dissolved in PBS to a final concentration of 1%. After orbital blood collection, the trachea was exposed, and a 1 ml syringe needle was replaced with a mouse gavage needle. 0.8 ml of the lavage fluid was aspirated from the syringe and the lungs were lavaged three times. The lavage fluids were collected, and centrifuged at 1000 rpm for 10 minutes, and the supernatant was collected and stored at −40 degrees Celsius. Cells were resuspended with 1 ml of PBS and counted. 100 ul of centrifuged smear was taken and stained with Diff quick and the number of eosinophils, basophils, lymphocytes and macrophages were recorded.
Bronchoalveolar Lavage Fluid IL-5: Bronchoalveolar lavage fluid was collected to detect IL-5.
Pathological scoring criteria were: • A) 0 points: No lymphocyte infiltration; • B) 1 point: Trace lymphocyte infiltration; • C) 2 points: Mild lymphocyte infiltration; • D) 3 points: Moderate lymphocyte infiltration; • E) 4 points: Severe lymphocyte infiltration; • After scoring, the results were calculated and analyzed.

| Compound | Serum IL-1α, IL-6 and DHT levels ([1]; 1 mg/kg low-dose) | Hair follicle area ([1]; 3 mg/kg) | Rabbit ear weight ([1]; 3 mg/kg each time) | Ear tissue HE staining ([1]; 3 mg/kg medium-dose) | Serum DHT level ([1]; 3 mg/kg) | Serum IL-1α level ([1]; 3 mg/kg) | Hair follicle area ([1]; 9 mg/kg) | Rabbit ear weight ([1]; 9 mg/kg each time) | Serum DHT level ([1]; 9 mg/kg) | Serum IL-1α level ([1]; 9 mg/kg) | Effect on inflammatory factors and acne (conclusion) [1] | Therapeutic effect on the asthma animal model (lung tissue pathological scoring) [2] | Bronchoalveolar lavage fluid IL-5 expression level [2] | Inflammatory cell count in bronchoalveolar lavage fluid [2] | Lung tissue inflammatory cell infiltration (HE pathology) [2] | Serum IgE expression level [2] |
| --- | --- | --- | --- | --- | --- | --- | --- | --- | --- | --- | --- | --- | --- | --- | --- | --- |
| CCc1cc(O)c(F)cc1-c1ccc2c(-c3nc4c([nH]3)CN(C(=O)N3CC[C@H](O)C3)C4)n[nH]c2c1 [MDI-1228, (S)-(2-(6-(2-ethyl-5-fluoro-4-hydroxyphenyl)-1H-indazol-3-yl)-4,6-dihydropyrrolo[3,4-d]imidazol-5-(1H)-yl)(3-hydroxylpyrrolidin-1-yl)ketone] | a trend of reduction in all three indicators | significantly reduced the enlargement of hair follicles | reduced ear weight | the best treatment effect | significantly reduced | significantly reduced | significantly reduced the enlargement of hair follicles | reduced ear weight | significantly reduced | significantly reduced | reducing the expression of inflammatory factors and improving acne | certain therapeutic effect | significantly reduced the expression of IL-5 | significantly reduced the Inflammatory Cell Count | significantly reduced the lung tissue inflammatory cell infiltration | significantly reduced the expression of IgE |
| CCc1cc(O)c(F)cc1-c1ccc2c(-c3nc4c([nH]3)CN(C(=O)NCC(O)CCl)C4)n[nH]c2c1 (stereo not shown) [MDI-1288] |  |  | reduced ear weight |  | significantly reduced | significantly reduced |  |  |  |  | reducing the expression of inflammatory factors and improving acne | certain therapeutic effect | significantly reduced the expression of IL-5 | significantly reduced the Inflammatory Cell Count | significantly reduced the lung tissue inflammatory cell infiltration | significantly reduced the expression of IgE |
